# Assay results as given in patent publication US12122816B2, “Long acting peptide tyrosine tyrosine (PYY) analogs and methods of use” (Intarcia Therapeutics, Inc., priority 2020, dated 2024).
# Experiments:
# Assay in all cases: NPY receptor functional assay (cAMP, HEK-CNG cells, ACTOne membrane potential dye)
# Type in all cases: cell-based
# [1] = biological target: T1, human Y1 receptor (Homo sapiens, UniProt P25929)
# T1 sequence (P25929 1-384): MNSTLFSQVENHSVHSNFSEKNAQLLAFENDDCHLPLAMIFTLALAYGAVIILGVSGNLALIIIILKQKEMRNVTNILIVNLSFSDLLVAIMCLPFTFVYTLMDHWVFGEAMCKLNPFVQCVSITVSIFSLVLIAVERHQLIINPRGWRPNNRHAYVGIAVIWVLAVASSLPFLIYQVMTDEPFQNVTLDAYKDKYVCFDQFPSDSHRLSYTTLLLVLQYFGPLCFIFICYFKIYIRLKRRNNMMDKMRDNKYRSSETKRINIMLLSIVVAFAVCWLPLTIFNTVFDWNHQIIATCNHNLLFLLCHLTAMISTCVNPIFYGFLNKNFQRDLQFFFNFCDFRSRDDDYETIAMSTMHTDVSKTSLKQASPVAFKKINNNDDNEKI
# From the text: The NPY family of G-protein coupled receptors include Y1, Y2, Y4, and Y5 in humans and rats. […] Following agonist binding, the receptor-G protein complex activates a downstream intracellular signaling cascade which leads to inhibition of adenylate cyclase and a reduction in intracellular cAMP levels.
# HEK-CNG cells stably expressing the human or rat Y1, Y2, Y4 or Y5 receptors (Codex Biosolutions) were used to characterize the functional potency of peptide agonists using the ActOne™ membrane potential dye kit (Codex Biosolutions). In addition to each NPY receptor, each cell line encodes a proprietary exogenous Cyclic Nucleotide-Gated (CNG) channel (Codex Biosolutions). The channel is activated by elevated intracellular levels of cAMP, resulting in ion flux and cell membrane depolarization which can be detected with a calcium sensitive dye or fluorescent membrane potential (MP) dye. Cells were carried in growth media containing 90% DMEM, 10% FBS, 250 mcg/mL G418 and 1 mcg/mL puromycin for no more than 15 passages.
# Prior to testing, cells were counted and dispensed at 14,000 cells per well (Y1, Y4 and Y5) or 28,000 cells per well (Y2) into black 384 well Poly-D-Lysine plates at 20 mcL per well. Covered plates were then incubated at room temperature for 30 minutes followed by an overnight incubation at 37° C. in 5% C02. The following day, media was removed and wells were washed once with 40 mcL Dulbecco's phosphate buffered saline. […] Ten microliters of experimental peptide or peptide standard was added in triplicate to wells and incubated for 50 minutes at room temperature in the dark. Following this incubation step, plates were read again as before (final read).
# NPY receptor activation, leading to a reduction in intracellular cAMP levels, is detected as a decrease in isoproteranol induced fluorescent signal. Peptide standard and experimental values were initially transformed in excel using the formula: final read/initial read. […] Normalized data was analyzed from triplicate tests and used to estimate the EC50 for each test peptide on each receptor. Data was fit in GraphPad Prism software (v8.2.1) using a 3-parameter logistic curve model: Y=Bottom+(Top−Bottom)/(1+10^((LogEC50−X))). EC50 values were converted to pEC50 values using the formula: pEC50=−Log(EC50).
# [2] = biological target: T2, human Y2 receptor (Homo sapiens, UniProt P49146); settings: NPY2R pEC50, HEK-CNG cells; standard PYY(3-36); species (human or rat) not given
# T2 sequence (P49146 1-381): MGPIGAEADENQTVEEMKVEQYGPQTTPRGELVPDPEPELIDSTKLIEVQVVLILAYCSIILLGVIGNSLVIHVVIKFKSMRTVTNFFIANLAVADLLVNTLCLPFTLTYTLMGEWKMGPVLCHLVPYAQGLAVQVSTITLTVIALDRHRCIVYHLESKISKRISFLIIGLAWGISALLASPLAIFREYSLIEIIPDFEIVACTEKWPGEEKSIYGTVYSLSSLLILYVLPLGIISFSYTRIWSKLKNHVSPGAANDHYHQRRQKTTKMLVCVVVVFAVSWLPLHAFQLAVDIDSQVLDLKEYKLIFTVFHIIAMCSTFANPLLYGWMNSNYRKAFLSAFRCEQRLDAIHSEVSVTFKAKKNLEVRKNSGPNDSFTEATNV
# How it was run: (§1)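 HEK-CNG cells stably expressing each human receptor; peptides added in triplicate for 50 minutes at room temperature, with agonism read as decreased isoproterenol-induced membrane potential dye signal (final/initial read).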
# [3] = biological target: T3, human Y5 receptor (Homo sapiens, UniProt Q15761); settings: NPY5R pEC50, HEK-CNG cells; standard NPY; species (human or rat) not given
# T3 sequence (Q15761 1-445): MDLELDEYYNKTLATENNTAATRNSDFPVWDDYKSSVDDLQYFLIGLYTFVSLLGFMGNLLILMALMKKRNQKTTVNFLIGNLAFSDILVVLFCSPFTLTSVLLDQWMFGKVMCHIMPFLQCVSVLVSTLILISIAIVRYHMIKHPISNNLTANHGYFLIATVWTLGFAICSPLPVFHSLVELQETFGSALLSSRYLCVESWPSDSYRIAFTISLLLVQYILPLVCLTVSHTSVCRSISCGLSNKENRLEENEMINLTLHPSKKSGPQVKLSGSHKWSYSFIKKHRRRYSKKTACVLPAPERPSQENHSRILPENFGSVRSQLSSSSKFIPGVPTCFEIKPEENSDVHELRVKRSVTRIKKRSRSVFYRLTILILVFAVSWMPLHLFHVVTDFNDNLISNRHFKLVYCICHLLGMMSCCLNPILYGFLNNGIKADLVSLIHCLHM
# How it was run: as §1
SMILES,EC50 [1],EC50 [2],EC50 [3]
CC(C)C[C@H](NC(=O)[C@H](CC(=O)O)NC(=O)[C@H](CCCCN)NC(=O)[C@H](Cc1ccc(O)cc1)NC(=O)[C@H](Cc1ccc(O)cc1)NC(=O)[C@H](CCCNC(=N)N)NC(=O)[C@H](CC(N)=O)NC(=O)[C@H](Cc1c[nH]c2ccccc12)NC(=O)[C@H](CCC(=O)O)NC(=O)[C@H](CCCCN)NC(=O)[C@@H]1CCCN1C(=O)[C@H](CO)NC(=O)[C@H](C)NC(=O)[C@H](CC(=O)O)NC(=O)[C@H](CCC(=O)O)NC(=O)CNC(=O)[C@@H]1CCCN1C(=O)[C@H](CCCCNC(=O)CC[C@H](NC(=O)CC[C@H](NC(=O)CCCCCCCCCCCCCCCCCCC(=O)O)C(=O)O)C(=O)O)NC(=O)[C@H](CCC(=O)O)NC(=O)[C@@H]1CCCN1C(=O)[C@H](CCCCN)NC(=O)[C@@H]1CCCN1)C(=O)N[C@@H](CCCNC(=N)N)C(=O)N[C@@H](Cc1c[nH]cn1)C(=O)N[C@@H](Cc1ccc(O)cc1)C(=O)N[C@@H](CC(C)C)C(=O)N[C@@H](CC(N)=O)C(=O)N[C@@H](Cc1c[nH]c2ccccc12)C(=O)N[C@@H](CC(C)C)C(=O)N[C@H](C(=O)N[C@@H](CCCNC(=N)N)C(=O)N[C@@H](CCC(N)=O)C(=O)N[C@@H](CCCNC(=N)N)C(=O)N[C@@H](Cc1ccccc1)C(N)=O)[C@@H](C)O [Compound A72],1 nM,0.0158 nM,1.58 nM
CC(C)C[C@H](NC(=O)[C@H](CC(=O)O)NC(=O)[C@H](CCCCN)NC(=O)[C@H](Cc1ccc(O)cc1)NC(=O)[C@H](Cc1ccc(O)cc1)NC(=O)[C@H](CCCNC(=N)N)NC(=O)[C@H](CC(N)=O)NC(=O)[C@H](Cc1c[nH]c2ccccc12)NC(=O)[C@H](CCC(=O)O)NC(=O)[C@H](CCC(=O)O)NC(=O)[C@@H]1CCCN1C(=O)[C@H](CO)NC(=O)[C@H](C)NC(=O)[C@H](CC(=O)O)NC(=O)[C@H](CCCCNC(=O)CC[C@H](NC(=O)CC[C@H](NC(=O)CCCCCCCCCCCCCCCCCCC(=O)O)C(=O)O)C(=O)O)NC(=O)CNC(=O)[C@@H]1CCCN1C(=O)[C@H](CCCCN)NC(=O)[C@H](CCC(=O)O)NC(=O)[C@@H]1CCCN1C(=O)[C@H](CCCCN)NC(=O)[C@@H]1CCCN1)C(=O)N[C@@H](CCCNC(=N)N)C(=O)N[C@@H](Cc1c[nH]cn1)C(=O)N[C@@H](Cc1ccc(O)cc1)C(=O)N[C@@H](CC(C)C)C(=O)N[C@@H](CC(N)=O)C(=O)N[C@@H](Cc1c[nH]c2ccccc12)C(=O)N[C@@H](CC(C)C)C(=O)N[C@H](C(=O)N[C@@H](CCCNC(=N)N)C(=O)N[C@@H](CCC(N)=O)C(=O)N[C@@H](CCCNC(=N)N)C(=O)N[C@@H](Cc1ccccc1)C(N)=O)[C@@H](C)O [Compound A74],0.501 nM,0.0501 nM,1 nM
